Measurements reported in PubChem BioAssay AID1963985 (Molecular Pharmacology Branch, DTP, NCI, 2024).

System: 252836-082-R-J2-PDC tumor spheroids, viability
Experiment: Anticancer human tumor 252836-082-R-J2-PDC patient-derived head and neck squamous cell carcinoma cell line growth inhibition [PI3K]
Settings: spheroids with HUVEC and MSC; for viability, T/C: stronger effect = lower value
In short: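 Combination activity was assessed by viability in multicellular tumor spheroids carrying HUVEC and MSC components. Agents were tested with PI3K inhibitors from a Cmax-based top dose (or 10 microM) downward in half-log increments.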

[1] = curve of first compound, second compound 0.0316 µM
[2] = curve of first compound, second compound 0.1 µM
[3] = curve of first compound, second compound 0.316 µM
[4] = curve of first compound, second compound 1 µM
[5] = curve of first compound, second compound 3.16 µM
[6] = curve of first compound, second compound 10 µM
[7] = second compound 0.0316 µM, first compound 0.0316 µM
[8] = second compound 0.0316 µM, first compound 0.1 µM
[9] = second compound 0.1 µM, first compound 0.0316 µM
[10] = second compound 0.1 µM, first compound 0.1 µM
[11] = second compound 0.316 µM, first compound 0.0316 µM
[12] = second compound 0.316 µM, first compound 0.1 µM
[13] = second compound 1 µM, first compound 0.0316 µM
[14] = second compound 1 µM, first compound 0.1 µM
[15] = second compound 3.16 µM, first compound 0.0316 µM
[16] = second compound 3.16 µM, first compound 0.1 µM
[17] = second compound 10 µM, first compound 0.0316 µM
[18] = second compound 10 µM, first compound 0.1 µM
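Note: spheroids exposed to agents for seven days before readout.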
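Throughout, for viability, T/C: percent of vehicle DMSO control viability so 100% = untreated growth.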

With `Cn1ncnc1[C@H]1c2n[nH]c(=O)c3cc(F)cc(c23)N[C@@H]1c1ccc(F)cc1` + CC(Nc1ncnc2nc[nH]c12)c1cc2cccc(Cl)c2c(=O)n1-c1ccccc1 the IC50 [1] was > 100 nM, the IC50 [2] was > 100 nM and the IC50 [3] was > 100 nM. For the same molecule, the IC50 [4] was > 100 nM, the IC50 [5] was 90.3 nM and the IC50 [6] was 23.1 nM. For the same molecule, the viability, T/C (second compound 0.0316 µM, first compound 0.000316 µM) was 95.5%, the viability, T/C (second compound 0.0316 µM, first compound 0.001 µM) was 79.7% and the viability, T/C (second compound 0.0316 µM, first compound 0.00316 µM) was 94%. For the same molecule, the viability, T/C (second compound 0.0316 µM, first compound 0.01 µM) was 94.4%, the viability, T/C [7] was 79.6% and the viability, T/C [8] was 58.8%. For the same molecule, the viability, T/C (second compound 0.1 µM, first compound 0.000316 µM) was 94.3%, the viability, T/C (second compound 0.1 µM, first compound 0.001 µM) was 82.6% and the viability, T/C (second compound 0.1 µM, first compound 0.00316 µM) was 79.3%. It also gave a viability, T/C (second compound 0.1 µM, first compound 0.01 µM) of 87.6%, a viability, T/C [9] of 79.1% and a viability, T/C [10] of 51.9%. The viability, T/C (second compound 0.316 µM, first compound 0.000316 µM) was 97.5%, the viability, T/C (second compound 0.316 µM, first compound 0.001 µM) was 84% and the viability, T/C (second compound 0.316 µM, first compound 0.00316 µM) was 79.5%. For the same molecule, the viability, T/C (second compound 0.316 µM, first compound 0.01 µM) was 80%, the viability, T/C [11] was 76.9% and the viability, T/C [12] was 57.8%. The viability, T/C (second compound 1 µM, first compound 0.000316 µM) was 84.8%, the viability, T/C (second compound 1 µM, first compound 0.001 µM) was 97.9% and the viability, T/C (second compound 1 µM, first compound 0.00316 µM) was 77.4%. It also gave a viability, T/C (second compound 1 µM, first compound 0.01 µM) of 81.5%, a viability, T/C [13] of 68.3% and a viability, T/C [14] of 57.9%. It also gave a viability, T/C (second compound 3.16 µM, first compound 0.000316 µM) of 71.5%, a viability, T/C (second compound 3.16 µM, first compound 0.001 µM) of 85.4% and a viability, T/C (second compound 3.16 µM, first compound 0.00316 µM) of 82.8%. For the same molecule, the viability, T/C (second compound 3.16 µM, first compound 0.01 µM) was 64.3%, the viability, T/C [15] was 64.7% and the viability, T/C [16] was 48.2%. The viability, T/C (second compound 10 µM, first compound 0.000316 µM) was 55.1%, the viability, T/C (second compound 10 µM, first compound 0.001 µM) was 59.4% and the viability, T/C (second compound 10 µM, first compound 0.00316 µM) was 58.8%. For the same molecule, the viability, T/C (second compound 10 µM, first compound 0.01 µM) was 63.4%, the viability, T/C [17] was 46.5% and the viability, T/C [18] was 31.2%.
For `Cn1nccc1Nc1nccc(-c2ccn(C(CO)c3ccc(Cl)c(F)c3)c(=O)c2)n1` (stereo unspecified) + Cc1nc(NC(=O)N2CCCC2C(N)=O)sc1-c1ccnc(C(C)(C)C(F)(F)F)c1, the IC50 [1] was > 10000 nM, the IC50 [2] was > 10000 nM and the IC50 [3] was > 10000 nM. For the same molecule, the IC50 [4] was 7540 nM, the IC50 [5] was < 31.6 nM and the IC50 [6] was < 31.6 nM. It also gave a viability, T/C [7] of 87%, a viability, T/C [8] of 91% and a viability, T/C (second compound 0.0316 µM, first compound 0.316 µM) of 91%. For the same molecule, the viability, T/C (second compound 0.0316 µM, first compound 1 µM) was 97.9%, the viability, T/C (second compound 0.0316 µM, first compound 3.16 µM) was 104% and the viability, T/C (second compound 0.0316 µM, first compound 10 µM) was 66%. It also gave a viability, T/C [9] of 87.4%, a viability, T/C [10] of 85.7% and a viability, T/C (second compound 0.1 µM, first compound 0.316 µM) of 79.8%. For the same molecule, the viability, T/C (second compound 0.1 µM, first compound 1 µM) was 90.6%, the viability, T/C (second compound 0.1 µM, first compound 3.16 µM) was 81.3% and the viability, T/C (second compound 0.1 µM, first compound 10 µM) was 62.4%. For the same molecule, the viability, T/C [11] was 74.7%, the viability, T/C [12] was 66.6% and the viability, T/C (second compound 0.316 µM, first compound 0.316 µM) was 81.7%. The viability, T/C (second compound 0.316 µM, first compound 1 µM) was 72.8%, the viability, T/C (second compound 0.316 µM, first compound 3.16 µM) was 79.4% and the viability, T/C (second compound 0.316 µM, first compound 10 µM) was 57.6%. For the same molecule, the viability, T/C [13] was 70.8%, the viability, T/C [14] was 61.9% and the viability, T/C (second compound 1 µM, first compound 0.316 µM) was 63.2%. It also gave a viability, T/C (second compound 1 µM, first compound 1 µM) of 64.6%, a viability, T/C (second compound 1 µM, first compound 3.16 µM) of 58% and a viability, T/C (second compound 1 µM, first compound 10 µM) of 47.3%. The viability, T/C [15] was 42.2%, the viability, T/C [16] was 46.1% and the viability, T/C (second compound 3.16 µM, first compound 0.316 µM) was 56.9%. The viability, T/C (second compound 3.16 µM, first compound 1 µM) was 45%, the viability, T/C (second compound 3.16 µM, first compound 3.16 µM) was 41.9% and the viability, T/C (second compound 3.16 µM, first compound 10 µM) was 33.5%. It also gave a viability, T/C [17] of 34.4%, a viability, T/C [18] of 37.2% and a viability, T/C (second compound 10 µM, first compound 0.316 µM) of 34.3%. The viability, T/C (second compound 10 µM, first compound 1 µM) was 23.6%, the viability, T/C (second compound 10 µM, first compound 3.16 µM) was 24.5% and the viability, T/C (second compound 10 µM, first compound 10 µM) was 11.8%.
With `CC1(C)CCC(Nc2ncc(C(F)(F)F)c(-c3c[nH]c4c(P(C)(C)=O)c(C#N)ccc34)n2)CN1` (stereo unspecified) the viability, T/C (compound 0.0316 µM) was 30.1% [middle of 4 runs], the viability, T/C (compound 0.1 µM) was 29.5% [middle of 4 runs] and the viability, T/C (compound 0.316 µM) was 35.8% [middle of 4 runs]. For the same molecule, the viability, T/C (compound 1 µM) was 33% [middle of 4 runs], the viability, T/C (compound 3.16 µM) was 32.1% [middle of 4 runs] and the viability, T/C (compound 10 µM) was 7.06% [middle of 4 runs]. The IC50 (curve of compound) was < 31.6 nM.
